US20240174680A1, “CDK2 INHIBITORS AND METHODS OF USING THE SAME” (Cedilla Therapeutics, Inc., priority 2021, published 2024)

Tests used:
CDK2/Cyclin E1 [1] = target: T1, CDK2/Cyclin E1 (Homo sapiens, UniProt P24941); assay: HotSpot kinase inhibition assay (radiometric, Histone H1 substrate); format: biochemical; conditions: 10 μM ATP, read-out: Kinase Assay (CDK2/CCNE): IC50
Procedure: Inhibition of CDK2/CCNE1 activities in the presence of compounds of the present disclosure was evaluated using the HotSpot™ assay (proprietary to Reaction Biology Corporation). In the assay, CDK2/Cyclin E1 (Signalchem C29-18G) catalyzed the transfer of radioactive phosphate to amino acid residues of Histone H1 (Sigma, H5505), which are detected radiometrically.
Reactions contained 20 mM HEPES pH 7.5, 10 mM MgCl2, 1 mM EGTA, 2 mM DTT, 0.02% Brij35, 0.02 mg/mL BSA, 0.1 mM Na3VO4, 1% DMSO, 1.5 nM CDK2/Cyclin E1, 10 μM ATP, and 20 μM Histone H1.
CDK2/Cyclin E1 and Histone H1 were mixed in reaction buffer. To this mixture dose titrations of inhibitors in 100% DMSO were added in by acoustic transfer. The compound mixtures were incubated for 20 minutes, then the kinase reactions were initiated by the addition of a mixture of ATP and ^33P ATP for final concentrations of 10 μM total ATP, 20 μM Histone H1, and 1.5 nM CDK2/Cyclin E1. The reactions were carried out for 120 minutes, then spotted on a P81 ion exchange filter paper, and extensively washed with 0.75% phosphoric acid. The resulting radioactive counts were normalized to yield % activity, plotted against compound concentration, and fit to a four-parameter equation to determine the IC50 for each compound.

CDK2/Cyclin E1 [2] = target: T1, CDK2/Cyclin E1; assay: CDK2/Cyclin E1 Caliper LabChip EZ Reader mobility shift assay; format: biochemical; parameters: purchased Eurofins 14-475; conditions: read-out: Caliper Assay (CDK2/CCNE1): IC50
Method in brief: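 Mobility-shift kinase assay: compound titrations preincubated 30 min with enzyme and ATP, reaction started with 5-FAM-QSPKKG-CONH2 peptide. Final 2.5 nM CDK2/Cyclin E1, 100 μM ATP, 1.5 μM peptide, HEPES pH 7.5; stopped with EDTA after 100 min. IC50 from four-parameter fit of normalized conversion ratio.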

Row | SMILES | IC50 (CDK2/Cyclin E1 [1]) [µM] | IC50 (CDK2/Cyclin E1 [2]) [µM]
1 | CNC(=O)[C@@H](NC(=O)[C@@H]1CN(C(=O)c2cnn(Cc3ccccc3)c2)CC12CN(C(=O)C1CC(C)(C)C1)C2)[C@@H](C)OCc1ccccc1 [I-4A] | 10 to 100 | –
2 | CNC(=O)[C@@H](NC(=O)[C@H]1CN(C(=O)c2cnn(Cc3ccccc3)c2)CC12CN(C(=O)CC1CC1)C2)[C@@H](C)OCc1ccccc1 [I-8B] | 10 to 100 | 1 to 10
3 | CNC(=O)[C@@H](NC(=O)[C@@H]1CN(C(=O)c2cnn(Cc3ccccc3)c2)CC12CN(C(=O)CC1CC1)C2)[C@@H](C)OCc1ccccc1 [I-8A] | 1 to 10 | 1 to 10
4 | CNC(=O)[C@@H](NC(=O)[C@H]1CN(C(=O)c2cn[nH]c2)CC12CN(C(=O)C1CC1(C)C)C2)[C@@H](C)OCc1ccccc1 (some centres unmarked) [I-5B] | 1 to 10 | –
5 | CNC(=O)[C@@H](NC(=O)C1CN(C(=O)c2cnn(Cc3ccccc3)c2)CC12CN(C(=O)C1CC1(C)C)C2)[C@@H](C)O (some centres unmarked) [I-88 mixture] | 10 to 100 | –
6 | CNC(=O)[C@@H](NC(=O)[C@@H]1CN(C(=O)c2cnn(Cc3ccccc3)c2)CC12CN(C(=O)OC(C)(C)C)C2)[C@@H](C)OCc1ccccc1 [I-3A, tert-butyl (S)-6-(1-benzyl-1H-pyrazole-4-carbonyl)-8-(((2S,3R)-3-(benzyloxy)-1-(methylamino)-1-oxobutan-2-yl)carbamoyl)-2,6-diazaspiro[3.4]octane-2-carboxylate] | ≤ 1 | 0.1 to 1
7 | CNC(=O)[C@@H](NC(=O)[C@H]1CN(C(=O)c2cnn(Cc3ccccc3)c2)CC12CN(C(=O)OC(C)(C)C)C2)[C@@H](C)OCc1ccccc1 [I-3B] | 1 to 10 | > 10
8 | CNC(=O)[C@@H](NC(=O)[C@@H]1CN(C(=O)c2cn[nH]c2)CC12CN(C(=O)C1CC1(C)C)C2)[C@@H](C)OCc1ccccc1 (some centres unmarked) [I-5A] | ≤ 1 | –
9 | CNC(=O)[C@@H](NC(=O)[C@H]1CN(C(=O)c2cnn(Cc3ccccc3)c2)CC12CN(C(=O)C1CC(C)(C)C1)C2)[C@@H](C)OCc1ccccc1 [I-4B] | > 100 | –
10 | COC[C@H]1CCCN(C(=O)[C@@H](NC(=O)[C@@H]2CN(C(=O)c3cncs3)CC23CN(C(=O)[C@H]2CC2(C)C)C3)[C@@H](C)OCC2CCCCC2)C1 [I-196A, (S)—N-((2S,3R)-3-(cyclohexylmethoxy)-1-((S)-3-(methoxymethyl)piperidin-1-yl)-1-oxobutan-2-yl)-2-((S)-2,2-dimethylcyclopropanecarbonyl)-6-(thiazole-5-carbonyl)-2,6-diazaspiro[3.4]octane-8-carboxamide] | ≤ 1 | ≤ 0.01
11 | CNC(=O)[C@H](COCc1ccccc1)NC(=O)[C@@H]1CN(C(=O)c2cnn(Cc3ccccc3)c2)CC12CN(C(=O)C1(C(F)(F)F)CC1)C2 [I-113A, (S)-6-(1-benzyl-1H-pyrazole-4-carbonyl)-N—((S)-3-(benzyloxy)-1-(methylamino)-1-oxopropan-2-yl)-2-(1-(trifluoromethyl)cyclopropane-1-carbonyl)-2,6-diazaspiro[3.4]octane-8-carboxamide] | – | 1 to 10

Other lines, results leading:

Row | IC50 (CDK2/Cyclin E1 [1]) [µM] | IC50 (CDK2/Cyclin E1 [2]) [µM] | SMILES
12 | 1 to 10 | – | CNC(=O)[C@H](COCc1ccccc1)NC(=O)C1CN(C(=O)c2cnn(Cc3ccccc3)c2)CC12CN(C(=O)C1CC1(C)C)C2 (some centres unmarked) [I-1]
13 | ≤ 1 | 0.1 to 1 | CNC(=O)[C@@H](NC(=O)C1CN(C(=O)c2cnn(Cc3ccccn3)c2)CC12CN(C(=O)C1CC1(C)C)C2)[C@@H](C)OCc1ccccc1 (some centres unmarked) [I-11]
14 | > 100 | – | CNC(=O)[C@@H](NC(=O)C1CN(C(=O)c2cnn(Cc3ccccc3)c2)CC12CN(C(=O)C1CC1(C)C)C2)[C@@H](C)OCc1cccc(C#N)c1 (some centres unmarked) [I-6]
15 | ≤ 1 | 0.1 to 1 | CC1(C)C[C@@H]1C(=O)N1CC2(CN(C(=O)c3cnn(Cc4ccccc4)c3)C[C@H]2C(=O)NCc2ccc(C3CCCCC3)nn2)C1 [I-377]
16 | 1 to 10 | 0.1 to 1 | CC1(C)C[C@@H]1C(=O)N1CC2(CN(C(=O)c3cnn(Cc4ccccc4)c3)C[C@H]2C(=O)N2CC[C@H](OCC3CCCCC3)C2)C1 [I-256]
17 | ≤ 1 | 0.1 to 1 | CNC(=O)[C@@H](NC(=O)C1CN(C(=O)c2cnn(Cc3ccncc3)c2)CC12CN(C(=O)C1CC1(C)C)C2)[C@@H](C)OCc1ccccc1 (some centres unmarked) [I-13]
18 | 1 to 10 | 1 to 10 | CC1(C)C[C@@H]1C(=O)N1CC2(CN(C(=O)c3cnn(Cc4ccccc4)c3)C[C@H]2C(=O)NCc2ccc(Cl)nn2)C1 [I-376]
19 | 10 to 100 | > 10 | Cc1ccc(CNC(=O)[C@@H]2CN(C(=O)c3cncs3)CC23CN(C(=O)[C@H]2CC2(C)C)C3)nn1 [I-378]
20 | ≤ 1 | ≤ 0.01 | C[C@@H](OCC1CCCCC1)[C@H](NC(=O)[C@@H]1CN(C(=O)c2cnn(Cc3ccccc3)c2)CC12CN(C(=O)[C@H]1CC1(C)C)C2)C(C)(C)O [I-281]
21 | ≤ 1 | 0.1 to 1 | Cc1ccc(CNC(=O)[C@@H]2CN(C(=O)c3cnn(Cc4ccccc4)c3)CC23CN(C(=O)[C@H]2CC2(C)C)C3)nn1 [I-252]
22 | ≤ 1 | 0.1 to 1 | CNC(=O)[C@@H](NC(=O)C1CN(C(=O)c2cnn(CC3CCCCC3)c2)CC12CN(C(=O)C1CC1(C)C)C2)[C@@H](C)OCc1ccccc1 (some centres unmarked) [I-10]
23 | 1 to 10 | 0.1 to 1 | CC1(C)C[C@@H]1C(=O)N1CC2(CN(C(=O)c3cnn(Cc4ccccc4)c3)C[C@H]2C(=O)N2CCN(CC3CCCCC3)C(=O)C2)C1 [I-253]
24 | ≤ 1 | ≤ 0.01 | COC[C@H]1CCCN(C(=O)[C@@H](NC(=O)[C@@H]2CN(C(=O)c3cncs3)CC23CN(C(=O)[C@H]2CC2(C)C)C3)[C@@H](C)O[C@H](C)C2CCCCC2)C1 [I-466]
25 | ≤ 1 | – | CNC(=O)[C@@H](NC(=O)C1CN(C(=O)c2cnn(Cc3ccccc3)c2)CC12CN(C(=O)C1CC1(C)C)C2)[C@@H](C)OCC1CCCCC1 (mixture of isomers) [I-12]
26 | 10 to 100 | – | CNC(=O)[C@@H](NC(=O)C1CN(C(=O)c2cnn(Cc3ccccc3)c2)CC12CN(C(=O)C1CC1(C)C)C2)[C@@H](C)OC (stereo partly drawn) [I-2, 6-(1-benzyl-1H-pyrazole-4-carbonyl)-2-(2,2-dimethylcyclopropane-1-carbonyl)-N-((2S,3R)-3-methoxy-1-(methylamino)-1-oxobutan-2-yl)-2,6-diazaspiro[3.4]octane-8-carboxamide]
27 | ≤ 1 | – | C[C@H](CNC(=O)C1CN(C(=O)c2cnn(Cc3ccccc3)c2)CC12CN(C(=O)C1CC1(C)C)C2)OCc1ccccc1 (some centres unmarked) [I-7]
28 | 1 to 10 | 1 to 10 | CNC(=O)[C@@H](NC(=O)C1CN(C(=O)c2cnn(C)c2)CC12CN(C(=O)C1CC1(C)C)C2)[C@@H](C)OCc1ccccc1 (stereo partly drawn) [I-14, N-((2S,3R)-3-(benzyloxy)-1-(methylamino)-1-oxobutan-2-yl)-2-(2,2-dimethylcyclopropane-1-carbonyl)-6-(1-methyl-1H-pyrazole-4-carbonyl)-2,6-diazaspiro[3.4]octane-8-carboxamide]
29 | ≤ 1 | ≤ 0.01 | COC[C@H]1CCCN(C(=O)[C@@H](NC(=O)[C@@H]2CN(C(=O)c3cncs3)CC23CN(C(=O)[C@H]2CC2(C)C)C3)[C@@H](C)O[C@H](C)C2CCCCC2)C1 [I-367]
30 | – | 0.01 to 0.1 | C[C@@H](OCC1CCCCC1)[C@H](NC(=O)[C@@H]1CN(C(=O)c2cnn(Cc3ccccc3)c2)CC12CN(C(=O)[C@H]1CC1(C)C)C2)C(=O)N1CCC[C@H]1CN [I-220]
31 | – | ≤ 0.01 | CCOC(=O)[C@@H]1CCCN(C(=O)[C@@H](NC(=O)[C@@H]2CN(C(=O)c3cnn(Cc4ccccc4)c3)CC23CN(C(=O)[C@H]2CC2(C)C)C3)[C@@H](C)OCC2CCCCC2)C1 [I-484]
32 | – | ≤ 0.01 | CNC(=O)C(NC(=O)[C@@H]1CN(C(=O)c2cnn(Cc3ccccc3)c2)CC12CN(C(=O)[C@H]1CC1(C)C)C2)c1cccc(C2CCCCC2)n1 (some centres unmarked) [I-391]
